Reference: patent US20250151724A1, “Liquid Soil Treatments Containing Choline” (Harrell's, LLC, priority 2023, published 2025)
Read-outs that look alike come from different tables or passages of the source.

What was measured:
[1] = test system: creeping bentgrass putting greens; experiment: Experiment No. 5: putting green field trial of Fleet100 and choline alone or in combination; type: in vivo; settings: Fleet100 5 fl oz, choline 0.25 oz/1000 ft^2 monthly
Description: There were 4 treatments with 4 replications. Plot size was 5×6 ft. Regular mowing and irrigation were performed. A randomized block design was used. Fleet® 100 was supplied by […]) and choline from Sigma-Aldrich, Inc. (St. Louis, MO) were used in this study. The treatments were as follows: • 1. […] N/1,000 ft^2 biweekly • 3. […] N/1,000 ft^2 biweekly • 4. […] The trial lasted for 12 weeks and a total of 3 treatment applications. […] Leaf chlorophyll content. Leaf samples were collected biweekly and chlorophyll content was determined using the spectrophotometer method described by Zhang et al. (2005). • e. Volumetric water content. […] At day 9 of the dry down cycles, leaf samples were collected and leaf proline content was analyzed. Irrigation was resumed after day 9 of each dry down cycle. […] Leaf proline content. Leaf samples were collected at the end of each dry down cycle and proline content was measured by using the method described by Wu et al. (2017). • g. Root characteristics, biomass, and viability. […] The root length, root diameter, root surface area, and root volume were analyzed using WinRHIZO technology. Briefly, after fine cleaning of each root sample, the sample from each plot was divided into multiple subsamples. Each subsample was scanned using WinRHIZO and all root morphological parameters were generated and analyzed. In addition, root viability was analyzed using TTC method (Zhang et al., 2017). Root viability is a good indicator of root function.

[2] = Description: Soil cores (1 inch diameter and 6 inches deep) were taken from a creeping bentgrass putting green and dried at 65° C. for 48 hours then allowed to air dry for 2 days. […] The soil cores were allowed to air dry for additional 4 days and the water drop penetration test was repeated using the same method. The four treatments were 1) control (distilled water), 2) distilled water plus choline at 0.125 oz./1,000 ft^2, 3) distilled water plus choline at 0.25 oz./1,000 ft^2, and 4) distilled water plus choline at 0.5 oz./1,000 ft^2. There were 3 replications for each treatment. The water drops from distilled water or choline solution were placed on soil cores 0.75 inch from the soil surface. As soon as the water drops reached the soil, a timer was started. When each water drop had disappeared and the water had penetrated into the soil, the time elapsed was recorded.
[3] = choline 0.125 oz/1000 ft2 in distilled water
[4] = choline 0.25 oz/1000 ft2 in distilled water
[5] = choline 0.5 oz/1000 ft2 in distilled water

SMILES: C[N+](C)(C)CCO.[Cl-] [Choline, choline chloride]
- Chlorophyll Content ([1]; day 0): 2.45a mg/g fresh weight
- Leaf color (1-9, 9 = dark green) ([1]; day 0): 7.5a
- Photochemical Efficiency (Fv/Fm) ([1]; day 0): 0.720a
- Turf quality (1-9, 9 = best) ([1]; day 0): 7.5a
- Chlorophyll Content ([1]; day 14): 2.90a mg/g fresh weight
- Leaf color (1-9, 9 = dark green) ([1]; day 14): 7.6ab
- Photochemical Efficiency (Fv/Fm) ([1]; day 14): 0.696a
- Turf quality (1-9, 9 = best) ([1]; day 14): 7.4a
- Leaf color (1-9, 9 = dark green) ([1]; day 22): 7.4a
- Photochemical Efficiency (Fv/Fm) ([1]; day 22): 0.664a
- Turf quality (1-9, 9 = best) ([1]; day 22): 6.8ab
- Proline ([1]; day 22 (end of 1st dry-down cycle)): 467.0a ug/g FW
- Chlorophyll Content ([1]; day 28): 3.85a mg/g fresh weight
- Leaf color (1-9, 9 = dark green) ([1]; day 28): 7.8a
- Photochemical Efficiency (Fv/Fm) ([1]; day 28): 0.761a
- Turf quality (1-9, 9 = best) ([1]; day 28): 7.6b
- Photochemical Efficiency (Fv/Fm) ([1]; day 40): 0.714a
- Chlorophyll Content ([1]; day 42): 3.03a mg/g fresh weight
- Leaf color (1-9, 9 = dark green) ([1]; day 42): 6.9ab
- Photochemical Efficiency (Fv/Fm) ([1]; day 42): 0.634a
- Turf quality (1-9, 9 = best) ([1]; day 42): 6.5b
- Proline ([1]; day 42 (end of 2nd dry-down cycle)): 538.0a ug/g FW
- Chlorophyll Content ([1]; day 56): 3.46a mg/g fresh weight
- Leaf color (1-9, 9 = dark green) ([1]; day 56): 7.7ab
- Photochemical Efficiency (Fv/Fm) ([1]; day 56): 0.729a
- Turf quality (1-9, 9 = best) ([1]; day 56): 7.4b
- Chlorophyll Content ([1]; day 70): 2.79b mg/g fresh weight
- Leaf color (1-9, 9 = dark green) ([1]; day 70): 7.4ab
- Photochemical Efficiency (Fv/Fm) ([1]; day 70): 0.733ab
- Turf quality (1-9, 9 = best) ([1]; day 70): 7.2ab
- Chlorophyll Content ([1]; day 84): 2.57a mg/g fresh weight
- Leaf color (1-9, 9 = dark green) ([1]; day 84): 7.4b
- Photochemical Efficiency (Fv/Fm) ([1]; day 84): 0.733ab
- Turf quality (1-9, 9 = best) ([1]; day 84): 7.3b
- Root Biomass ([1]; end of trial): 2.14ab mg/cm^3
- Root Diameter ([1]; end of trial): 0.187b mm
- Root Length ([1]; end of trial): 118.2a cm/cm^3
- Root SA ([1]; end of trial): 7.02ab cm^2/cm^3
- Root Volume ([1]; end of trial): 33.4ab cm^3/dm^3
- Root Viability ([1]; end of trial, TTC method): 0.49a A490/g FW
- time of water drop penetration, first test ([2]; 2 days after oven drying of soil cores, not quantified): reduced the time of water drop penetration
- Time of water drop penetration, Average [2, 3]: 250.3ab seconds
- Time of water drop penetration, Rep I [2, 3]: 454 s
- Time of water drop penetration, Rep II [2, 3]: 106 s
- Time of water drop penetration, Rep III [2, 3]: 191 s
- Time of water drop penetration, Average ([2]; choline 0.125 oz/1000 ft2 in distilled water, listed as choline): 250.3 s
- Time of water drop penetration, Average [2, 4]: 129.7ab seconds
- Time of water drop penetration, Rep I [2, 4]: 110 s
- Time of water drop penetration, Rep II [2, 4]: 72 s
- Time of water drop penetration, Rep III [2, 4]: 207 s
- Time of water drop penetration, Average ([2]; choline 0.25 oz/1000 ft2 in distilled water, listed as choline): 129.7 s
- Time of water drop penetration, Average [2, 5]: 97.7b seconds
- Time of water drop penetration, Rep I [2, 5]: 97 s
- Time of water drop penetration, Rep II [2, 5]: 26 s
- Time of water drop penetration, Rep III [2, 5]: 170 s
- Time of water drop penetration, Average ([2]; choline 0.5 oz/1000 ft2 in distilled water, listed as choline): 97.7 s
- Water drop penetration time shorter relative to the control (distilled water) ([2]; choline solution 0.5 oz./1,000 ft^2): 2.5 fold
